Measured values taken from patent US20220348876A1, “METABOLISM GUIDES DEFINITIVE LINEAGE SPECIFICATION DURING ENDOTHELIAL TO HEMATOPOIETIC TRANSITION” (Amniotics AB, priority 2019, published 2022).

What was measured:
Format in all cases: cell-based, human
HE cells [1] = experiment: single-cell RNAseq of treated HE cells at day 2
Protocol: Sorted HE, EHT and HSC-like cells as well magnetically selected (Miltenyi Biotec) cord blood CD34^+ cells were plated onto Matrigel (16 μg/cm^2, Corning)-coated 96-well flat bottom plates in HE medium (Ditadi, A. & Sturgeon, C. M. Methods 101, 65-72 (2016)) with 1% penicillin-streptomycin and kept in a humidified incubator at 37° C., 5% CO2, 4% O2 overnight. The following day (day 0), wells were washed twice with PBS and fresh HE medium was added, together with UK5099 (10 μM) or DCA (3 mM), where indicated. On day 1 and 2 (as indicated), cells were washed twice with PBS 0.04% UltraPure BSA and collected after a 2-minute incubation at 37° C. with StemPro Accutase Cell Dissociation Reagent. Cells were spun down, resuspended in PBS 0.04% UltraPure BSA, counted (yield between 8,000-18,000 cells) and library preparation was conducted according to the Chromium Single Cell 3′ Reagent kit v3 instructions (10× Genomics). Sequencing was performed on a NOVASeq 6000 from Illumina with the run parameters (28-8-0-91) recommended by 10× Genomics with a final loading concentration of 300 pM of the pooled libraries. Human Umbilical Cord Blood samples were collected from Skane University Hospital (Lund and Malmo) and Helsingborg Hospital with informed consents according to guidelines approved by the regional ethical committee.
The data was processed and analyzed using Seurat v3.1.0, where cells were allowed to have up to 20% mitochondrial reads prior to log-normalization and finding the top 500 variable genes using the “vst” method. Cell cycle scores were calculated and the data was scaled regressing on mitochondrial content and the difference of the S and G2M score. Principal components were calculated prior to calculating a UMAP. Pseudotime trajectories describing two developmental routes were identified in our EHT dataset using Slingshot (Street, K. et al. BMC Genomics 19, 477 (2018)) along which the cells were ordered. The cells were then binned along each trajectory where the cell-type composition of each bin was calculated as percentages. Cord blood CD34^+ cells were mapped to our data and labeled using scCoGAPS (Stein-O'Brien, G. L. et al. Cell Syst 8, 395-411.e8 (2019)). CS13 data from Zeng et al. (Zeng, Y. et al. Cell Res 1-14 (2019)) was read and processed to make a UMAP from which the cells they name as “AEC” and “Hem” were identified. These 99 cells were mapped to our data and labeled using SCMAP (Kiselev, V. Y. et al. Nat Methods 15, 359-362 (2018)). Our EHT data was mapped to data from Zeng et al. (Zeng, Y. et al. Cell Res 1-14 (2019)) and vice versa using scCoGAPS where 10 patterns were identified in each data set and then projected to each other using projectR. Each cell was assigned to the group that achieved the highest weight. An overview showing the relationship between cell-types and patterns was done by forming a contingency table on which correspondence analysis was performed using the ca package for R. Differentially expressed genes were found using the FindAllMarkers function. Cell numbers for day 1 samples are as follows: HE=1451, EHT=1523, HSC-like=732. […] All assessed endothelial and hematopoietic genes were previously used in several publications to validate the EHT process (Zhou, F. et al. Nature 533, 487-492 (2016); Swiers, G. et al. Nat Commun 4, 2924 (2013); Ng, E. S. et al. Nature Biotechnology 34, 1168-1179 (2016) and Guibentif, C. et al. Cell Reports 19, 10-19 (2017)). […]

HE cells [2] = experiment: Colony forming unit assay of subcultured HE cells; conditions: for ratio of CFU-E colonies to the sum of CFU-G, CFU-GM and CFU-M colonies: 6 days, compared to the control
Protocol: Subcultured HE cells were treated with StemPro Accutase Cell Dissociation Reagent for 2 minutes at 37° C. and dissociated cells were resuspended in 3 ml Methocult H4230 (STEMCELL Technologies, France) (prepared according to manufacturer's instructions, with 20 mL Iscove's Modified Dulbecco's Medium containing 2.5 μg hSCF, 5 μg GM-CSF, 2.5 μg IL-3 and 500 U EPO). Each mixture was divided onto 2 wells of a non-tissue culture treated 6-well plate. Following a 12-day incubation in a humidified incubator at 37° C., 5% CO2, 20% O2, colonies were morphologically distinguished and scored. For globin analysis, colonies in Methocult wells were harvested with PBS, washed thoroughly and frozen in RLT buffer with β-mercaptoethanol. Following RNA extraction and RT (Qiagen), gene expression was assessed with taqman probes by q-PCR. The taqman probes used in this study are HBA1/2 (Hs00361191_g1), HBE1 (Hs00362216_m1), HBG2/1 (Hs00361131_g1) and KLF1 (Hs00610592_m1).

HE cells [3] = experiment: GPA+ clones from single HE cells on OP9-DL1 stroma; conditions: of 552 single cells per condition, day 14; control 9
From the text: In some examples to further assess the effect of pyruvate manipulation on a single cell level, single HE cells were sorted onto OP9-DL1 stroma and GPA^+ clones were scored at day 14. From a total of 552 single cells per condition, 12 GPA^+ clones were detected in the UK5099-treated condition and 7 GPA^+ clones in the DCA-treated condition as compared to 9 GPA^+ clones in the control (FIG. 14, d).

HE cells [4] = experiment: HE cell subculture with compounds, flow cytometry
EHT cells = experiment: EHT cell subculture with compounds, flow cytometry; conditions: deriving from EHT cells, day 6; UK5099 10 μM
[5] = 3 or 6 days of UK5099, vs untreated

| Compound | less cells in cluster 7 compared to the control (HE cells [1]; day 2, DCA 3 mM) [%] | ratio of CFU-E colonies to the sum of CFU-G, CFU-GM and CFU-M colonies (HE cells [2]) | GPA+ clones (HE cells [3]) | decrease in CD43+GPA+ population (HE cells [4]; day 6 of HE subculture, DCA 3 mM) [%] | increase in the percentage of CD43+CD45+ cells (HE cells [4]; deriving from HE, day 6, DCA 3 mM) [%] | expression of LSD1, GFI1 and GFI1B (HE cells [1]; UK5099-treated compared to DCA-treated cells) | average expression levels of erythroid lineage genes (RYK, KLF3, TAL1, GATA2, ZFPM1, KLF1, NFE2, ANK1, HBQ1) (HE cells [1]; clusters 6 and 7, vs untreated HE cells) | more cells in cluster 7 compared to the control (HE cells [1]; day 2, UK5099 10 μM) [%] | percentage of cells in cluster 6 (HE cells [1]; day 2, UK5099 10 μM or DCA 3 mM) | erythroid colony (CFU-E) formation (HE cells [2]; [5]) | granulocyte and macrophage colonies (CFU-G, GM and M) (HE cells [2]; [5]) | decrease in the CD43+CD45+ population (EHT cells) | proliferation of CD45+ cells deriving from HE (HE cells [4]; CTV, UK5099 10 μM or DCA 3 mM) | frequency of HSC-like cells deriving from HE (HE cells [4]; UK5099 10 μM or DCA 3 mM) | proliferation of the GPA+ population deriving from HE (HE cells [4]; day 3, CTV, UK5099 10 μM or DCA 3 mM) | HE-derived CD43+GPA+ cell output (HE cells [4]; day 3 of subculture vs control, BPTES 25 μM, UK5099 10 μM, 1-AA 4 mM, DCA 3 mM) | levels of total CD43+ cells (HE cells [4]; day 6, treated vs untreated) | proliferation by EdU incorporation (HE cells [4]; days 1 and 2 of subculture, 24 h pulse) | decrease in the CD43+CD45+ population (HE cells [4]; deriving from HE cells, day 6, UK5099 10 μM) |
| --- | --- | --- | --- | --- | --- | --- | --- | --- | --- | --- | --- | --- | --- | --- | --- | --- | --- | --- | --- |
| O=C(O)C(Cl)Cl [DCA, dichloroacetate] | 35 | more than 3 -fold lower | 7 | 50 | 80 |  |  |  |  |  |  |  |  |  |  |  |  |  |  |
| N#C/C(=C\c1cn(-c2ccccc2)c2ccccc12)C(=O)O [UK5099] |  | 20 -fold higher | 12 |  |  | higher levels | higher | 38 | constant between conditions | significantly increased | decreased | 2 -fold | did not have an effect | did not have an effect | No differences | striking increase | unchanged | no differences | 2 -fold |
